Data taken from patent US20250320207A1, “Ketal Protected Intermediate for Sonrotoclax and Preparation Method Thereof” (priority 2022, published 2025).

Description: The sample was tested by GC (carrier gas: N2) and HPLC (Column: Waters Xselect HSS T3 (150 mm*4.6 mm, 3.5 um) P/N: 186004786; mobile phase 0.05% TFA in water, ACN:MeOH=1:1, v/v; Flow: 1 ml/min; Temperature: 30° C.).

Structure (SMILES): C1COC2(CC3(CCNCC3)C2)OC1.Cl [1,5-dioxa-11-azadispiro[5.1.5.1]tetradecane hydrogen chloride]
- storage stability (result in words): stable enough
- Product, Impurity profile (RRT, Area %), RRT 1.00 (stored at 2-8° C. for 3.5 months, double layered LDPE bag with desiccant inside heat-sealed aluminum foil bag, GC and HPLC): 99.90 Area %
